Values of other authors, collected in US20150018389A1, “METHOD FOR TREATING PARKINSONS DISEASE AND OTHER NEUROLOGICAL DISEASES” (priority 2013, published 2015).

Key:
[1] = tested on: tumor necrosis factor alpha; settings: erythema nodosum leprosum, treatment with thalidomide (Sampaio et al. 1992)
HIV [2] = settings: peripheral blood mononuclear cells of HIV-infected patients
HIV [3] = settings: infected cell lines induced with tumor necrosis factor alpha (Schauf et al. 1992)
CD4 lymphocyte counts = settings: erythema nodosum leprosum (Moncada et al. 1985)
[4] = not given; remark: listed apart in the source
[5] = serum vs in vitro pH 7.4
[6] = not given; remark: listed apart in the source
[7] = tested on: tumor necrosis factor alpha production by stimulated monocytes; settings: stimulated monocytes (Sampaio et al. 1991)

For O=C1CCC(N2C(=O)c3ccccc3C2=O)C(=O)N1 (racemic) [Thalidomide, N-phthalidoglutarimide], the “elevated tumor necrosis factor alpha levels” value [1] is given as “reduced”, the HIV production (HIV [2]) is given as “reduce” and the HIV expression (HIV [3]) is given as “inhibited”. The absorption (humans, orally administered) was “poorly absorbed”, the plasma protein binding (in vivo) was “highly bound to plasma proteins” and the “previously suppressed CD4 lymphocyte counts” value (CD4 lymphocyte counts) was “increases”. For the same compound, the “toxicity in a series of animal studies” value [4] was “has not been toxic”, the “hydrolytic cleavage in serum compared with in vitro at pH 7.4” value [5] was “much slower” and the “side effects in humans” value [6] was “somnolence, teratogenicity and, upon extended administration, peripheral neuropathy”. The “tumor necrosis factor alpha production” value [7] was “inhibit”.
